Molecular target: T1, human PAD4 (Homo sapiens, UniProt Q9UM07)
T1 construct: human PAD4 (NM_012387), A2P663, was PCR amplified; His-SUMO (N, cleaved yes); made in house; host or cells: E. coli BL21(DE3)
Assay: In vitro PAD4 BAEE biochemical assay
Conditions: human PAD4, BAEE substrate; 5 nM PAD4, 2 mM calcium chloride, 3 mM BAEE; geometric mean of multiple experiments
Procedure, shortened: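 Ammonia generated from BAEE serves as the readout, measured by o-phthalaldehyde after EDTA termination. Final conditions: 5 nM human PAD4 (SUMO tag cleaved), 2 mM CaCl2, 3 mM BAEE, pH 7.6 MOPS buffer, 25 °C for 2 h following a 30-min compound preincubation.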

T1 sequence (Q9UM07 2-663): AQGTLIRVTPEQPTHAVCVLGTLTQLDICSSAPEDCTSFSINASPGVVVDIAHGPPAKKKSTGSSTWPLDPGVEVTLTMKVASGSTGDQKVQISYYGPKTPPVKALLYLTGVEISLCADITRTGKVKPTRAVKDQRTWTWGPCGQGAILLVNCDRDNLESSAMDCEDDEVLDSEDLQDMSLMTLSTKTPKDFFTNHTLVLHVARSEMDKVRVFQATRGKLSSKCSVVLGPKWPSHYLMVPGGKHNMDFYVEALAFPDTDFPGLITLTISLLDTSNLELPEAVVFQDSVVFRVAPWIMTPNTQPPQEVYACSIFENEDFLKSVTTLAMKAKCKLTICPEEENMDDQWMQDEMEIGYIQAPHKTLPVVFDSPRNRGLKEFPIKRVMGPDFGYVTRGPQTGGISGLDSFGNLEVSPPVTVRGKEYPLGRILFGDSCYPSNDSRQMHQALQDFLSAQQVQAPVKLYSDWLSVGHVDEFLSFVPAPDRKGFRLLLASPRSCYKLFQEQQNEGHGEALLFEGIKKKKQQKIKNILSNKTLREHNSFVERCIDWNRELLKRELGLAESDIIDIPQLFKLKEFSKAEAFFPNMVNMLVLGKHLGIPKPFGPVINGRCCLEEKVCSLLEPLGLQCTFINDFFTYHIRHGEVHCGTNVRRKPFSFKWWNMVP

| Compound | IC50 [nM] |
| --- | --- |
| CCc1cc2c(cc1F)cc(-c1nc3cc(C(=O)N4CCC[C@@H](N)C4)cc(OC)n3c1C)n2CC1CC1 [Example 589, [(3~{R})-3-aminopiperidin-1-yl]-[2-[1-(cyclopropylmethyl)-6-ethyl-5-fluoroindol-2-yl]-5-methoxy-3-methylimidazo[1,2-a]pyridin-7-yl]methanone] | 2680 |
| CCc1ccc2cc(-c3nc4cc(C(=O)N5CCC6(CC6)[C@@H](N)C5)cc(OC)n4c3C)n(CC3CC3)c2n1 [Example 592, [(8~{R})-8-amino-6-azaspiro[2.5]octan-6-yl]-[2-[1-(cyclopropylmethyl)-6-ethylpyrrolo[2,3-b]pyridin-2-yl]-5-methoxy-3-methylimidazo[1,2-a]pyridin-7-yl]methanone] | 9000 |
| CCc1ccc2cc(-c3nc4cc(C(=O)N5CC6(N)CCC5CC6)cc(OC)n4c3C)n(CC3CC3)c2n1 [Example 593, (4-amino-2-azabicyclo[2.2.2]octan-2-yl)-[2-[1-(cyclopropylmethyl)-6-ethylpyrrolo[2,3-b]pyridin-2-yl]-5-methoxy-3-methylimidazo[1,2-a]pyridin-7-yl]methanone] | 1900 |
| CCc1ccc2cc(-c3nc4cc(C(=O)N5CC6(CCCNC6)C5)cc(OC)n4c3C)n(CC3CC3)c2n1 [Example 594, [2-[1-(cyclopropylmethyl)-6-ethylpyrrolo[2,3-b]pyridin-2-yl]-5-methoxy-3-methylimidazo[1,2-a]pyridin-7-yl]-(2,8-diazaspiro[3.5]nonan-2-yl) methanone] | 1700 |
| COc1cc(C(=O)N2CCC[C@@H](N)C2)cc2nc(-c3cc4ccc(C(C)(F)F)nc4n3CC3CC3)c(C)n12 [Example 596, [(3~{R})-3-aminopiperidin-1-yl]-[2-[1-(cyclopropylmethyl)-6-(1,1-difluoroethyl)pyrrolo [2,3-b]pyridin-2-yl]-5-methoxy-3-methylimidazo [1,2-a]pyridin-7-yl] methanone] | 997 |
| CCc1ccc2cc(-c3nc4cc(C(=O)N5CCC[C@@H](N)C5)ccn4c3C3CC3)n(CC3CC3)c2n1 [Example 597, [(3~{R})-3-aminopiperidin-1-yl]-[3-cyclopropyl-2-[1-(cyclopropylmethyl)-6-ethylpyrrolo[2,3-b]pyridin-2-yl]imidazo[1,2-a]pyridin-7-yl]methanone] | 299 |

More lines, in order of falling IC50, values ahead:

| IC50 [nM] | Compound |
| --- | --- |
| 31500 | CCc1ccc2cc(-c3nc4cc(C(=O)N5CC6(CNCCO6)C5)cc(OC)n4c3C)n(CC3CC3)c2n1 [Example 595, [2-[1-(cyclopropylmethyl)-6-ethylpyrrolo[2,3-b]pyridin-2-yl]-5-methoxy-3-methylimidazo[1,2-a]pyridin-7-yl]-(5-oxa-2,8-diazaspiro[3.5]nonan-2-yl) methanone] |
| 9820 | COc1cc(C(=O)N2CCC[C@@H](N)C2)cc2nc(-c3cc4cc(F)c(Cl)cc4n3CC3CC3)c(C)n12 [Example 590, [(3~{R})-3-aminopiperidin-1-yl]-[2-[6-chloro-1-(cyclopropylmethyl)-5-fluoroindol-2-yl]-5-methoxy-3-methylimidazo[1,2-a]pyridin-7-yl]methanone] |
| 936 | CCc1ccc2cc(-c3nc4cc(C(=O)N5CC[C@H]6OCCN[C@H]6C5)cc(OC)n4c3C)n(CC3CC3)c2n1 [Example 591, [(4~{a}~{S},8~{a}~{R})-2,3,4,4~{a},5,7,8,8~{a}-octahydropyrido[4,3-b] [1,4]oxazin-6-yl]-[2-[1-(cyclopropylmethyl)-6-ethylpyrrolo[2,3-b]pyridin-2-yl]-5-methoxy-3-methylimidazo[1,2-a]pyridin-7-yl]methanone] |
| 312 | CCOC(=O)CC(C)c1ccc2cc(-c3nc4cc(C(=O)N5CCC[C@@H](N)C5)cc(OC)n4c3C)n(CC3CC3)c2n1 (stereo partly shown) [Example 598, ethyl 3-[2-[7-[(3~{R})-3-aminopiperidine-1-carbonyl]-5-methoxy-3-methylimidazo [1,2-a]pyridin-2-yl]-1-(cyclopropylmethyl)pyrrolo [2,3-b]pyridin-6-yl] butanoate] |

Source: US12240862B2, “Inhibitors of peptidylarginine deiminases” (Gilead Sciences, Inc., priority 2020, dated 2025)
